Drawing on patent publication US20230295197A1, “STAT5 and STAT6 Degraders and Uses Thereof” (REGENTS OF THE UNIVERSITY OF MICHICAN, priority 2022, published 2023), this text covers DC50 for nine compounds.

The structures appear in SMILES notation. Read-outs that look alike come from different tables or passages of the source.

For this experiment, the target named is T1, STAT6 (Homo sapiens, UniProt P42226).
T1 construct: endogenous in cells; host or cells: MOLM-16, KU-812, SKNO1, MB231, L1236
T1 sequence (P42226 1-847): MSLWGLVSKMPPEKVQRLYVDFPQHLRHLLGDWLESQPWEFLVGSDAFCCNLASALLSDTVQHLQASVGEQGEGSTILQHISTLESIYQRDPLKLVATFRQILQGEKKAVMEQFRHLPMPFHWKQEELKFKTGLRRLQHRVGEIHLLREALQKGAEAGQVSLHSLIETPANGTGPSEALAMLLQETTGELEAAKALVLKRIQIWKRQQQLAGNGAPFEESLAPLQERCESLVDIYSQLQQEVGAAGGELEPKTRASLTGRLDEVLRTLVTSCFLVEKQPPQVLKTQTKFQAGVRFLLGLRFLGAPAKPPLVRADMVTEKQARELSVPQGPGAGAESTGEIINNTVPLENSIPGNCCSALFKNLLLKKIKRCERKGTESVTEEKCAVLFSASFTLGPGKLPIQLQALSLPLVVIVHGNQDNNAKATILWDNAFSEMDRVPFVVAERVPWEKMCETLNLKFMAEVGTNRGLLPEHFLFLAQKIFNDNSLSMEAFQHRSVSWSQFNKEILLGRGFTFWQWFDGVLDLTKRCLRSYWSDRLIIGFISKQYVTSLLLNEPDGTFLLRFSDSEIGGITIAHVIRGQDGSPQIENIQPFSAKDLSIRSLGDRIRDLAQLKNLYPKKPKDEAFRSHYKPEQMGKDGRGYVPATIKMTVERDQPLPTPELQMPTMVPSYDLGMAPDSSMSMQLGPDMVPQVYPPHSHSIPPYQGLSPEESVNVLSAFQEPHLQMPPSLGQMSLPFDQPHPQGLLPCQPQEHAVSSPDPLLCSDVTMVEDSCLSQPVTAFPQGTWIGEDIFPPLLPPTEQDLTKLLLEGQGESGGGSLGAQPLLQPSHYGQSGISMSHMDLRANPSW
Description: Immunoblotting (Western blot) analysis of STAT6 degradation efficiency of degraders in treated cells. It counts as cell-based. The method in brief:
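Protein levels of STAT5 and STAT6 were assessed in cells cultured at 37 °C in 10% FBS medium after compound exposure, by quantitative fluorescent Western blotting normalised to equal loading and referenced to GAPDH.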
Background: Immunoblotting shows a protein as a band on a membrane.

Setting [1] is: L1236 cells, read-out: DC50 S6 L1236.
Where [2] appears, read: MOLM-16 cells, class symbols, read-out: DC50 S6 MOLM-16.

With `Cc1ncsc1-c1ccc([C@H](C)NC(=O)[C@@H]2C[C@@H](O)CN2C(=O)[C@@H](NC(=O)CCCCNC(=O)CC(=O)N2CCN(C(=O)[C@@H](NC(=O)c3cc4cc(C(F)(F)P(=O)(O)O)ccc4s3)C(C)(C)C)[C@H](C(=O)N3CCC[C@H](c4ccccc4)C3)C2)C(C)(C)C)cc1` [Compound 455, (difluoro(2-(((S)-1-((S)-4-(3-((5-(((S)-1-((2S,4R)-4-hydroxy-2-(((S)-1-(4-(4-methylthiazol-5-yl)phenyl)ethyl)carbamoyl)pyrrolidin-1-yl)-3,3-dimethyl-1-oxobutan-2-yl)amino)-5-oxopentyl)amino)-3-oxopropanoyl)-2-((R)-3-phenylpiperidine-1-carbonyl)piperazin-1-yl)-3,3-dimethyl-1-oxobutan-2-yl)carbamoyl)benzo[b]thiophen-5-yl)methyl)phosphonic acid], the DC50 is, setting by setting: under setting [1], greater than 10 µM; under setting [2], greater than 10 µM.
With `Cc1ncsc1-c1ccc([C@H](C)NC(=O)[C@@H]2C[C@@H](O)CN2C(=O)[C@@H](NC(=O)CCCCCNC(=O)CC(=O)N2CCN(C(=O)[C@@H](NC(=O)c3cc4cc(C(F)(F)P(=O)(O)O)ccc4s3)C(C)(C)C)[C@H](C(=O)N3CCC[C@H](c4ccccc4)C3)C2)C(C)(C)C)cc1` [Compound 456, (difluoro(2-(((S)-1-((S)-4-(3-((6-(((S)-1-((2,4R)-4-hydroxy-2-(((S)-1-(4-(4-methylthiazol-5-yl)phenyl)ethyl)carbamoyl)pyrrolidin-1-yl)-3,3-dimethyl-1-oxobutan-2-yl)amino)-6-oxohexyl)amino)-3-oxopropanoyl)-2-((R)-3-phenylpiperidine-1-carbonyl)piperazin-1-yl)-3,3-dimethyl-1-oxobutan-2-yl)carbamoyl)benzo[b]thiophen-5-yl)methyl)phosphonic acid], the DC50 under setting [1] is greater than 10 µM and the 50% degradation concentration (DC50) under setting [2] was greater than 10 µM.
In the case of `Cc1ncsc1-c1ccc([C@H](C)NC(=O)[C@@H]2C[C@@H](O)CN2C(=O)[C@@H](NC(=O)CCCCCCNC(=O)CC(=O)N2CCN(C(=O)[C@@H](NC(=O)c3cc4cc(C(F)(F)P(=O)(O)O)ccc4s3)C(C)(C)C)[C@H](C(=O)N3CCC[C@H](c4ccccc4)C3)C2)C(C)(C)C)cc1` [Compound 457, (difluoro(2-(((S)-1-((S)-4-(3-((7-(((S)-1-((2S,4R)-4-hydroxy-2-(((S)-1-(4-(4-methylthiazol-5-yl)phenyl)ethyl)carbamoyl)pyrrolidin-1-yl)-3,3-dimethyl-1-oxobutan-2-yl)amino)-7-oxoheptyl)amino)-3-oxopropanoyl)-2-((R)-3-phenylpiperidine-1-carbonyl)piperazin-1-yl)-3,3-dimethyl-1-oxobutan-2-yl)carbamoyl)benzo[b]thiophen-5-yl)methyl)phosphonic acid], the DC50 was greater than 10 µM under setting [1] and greater than 10 µM under setting [2].
For the compound `Cc1ncsc1-c1ccc([C@H](C)NC(=O)[C@@H]2C[C@@H](O)CN2C(=O)[C@@H](NC(=O)CCCCCCCNC(=O)CC(=O)N2CCN(C(=O)[C@@H](NC(=O)c3cc4cc(C(F)(F)P(=O)(O)O)ccc4s3)C(C)(C)C)[C@H](C(=O)N3CCC[C@H](c4ccccc4)C3)C2)C(C)(C)C)cc1` [Compound 458, (difluoro(2-(((S)-1-((S)-4-(3-((8-(((S)-1-((2S,4R)-4-hydroxy-2-(((S)-1-(4-(4-methylthiazol-5-yl)phenyl)ethyl)carbamoyl)pyrrolidin-1-yl)-3,3-dimethyl-1-oxobutan-2-yl)amino)-8-oxooctyl)amino)-3-oxopropanoyl)-2-((R)-3-phenylpiperidine-1-carbonyl)piperazin-1-yl)-3,3-dimethyl-1-oxobutan-2-yl)carbamoyl)benzo[b]thiophen-5-yl)methyl)phosphonic acid], the half-maximal degradation concentration (DC50) runs as follows: under setting [1], greater than 10 µM; under setting [2], greater than 10 µM.
Take `Cc1ncsc1-c1ccc([C@H](C)NC(=O)[C@@H]2C[C@@H](O)CN2C(=O)[C@@H](NC(=O)CCCCCCCCNC(=O)CC(=O)N2CCN(C(=O)[C@@H](NC(=O)c3cc4cc(C(F)(F)P(=O)(O)O)ccc4s3)C(C)(C)C)[C@H](C(=O)N3CCC[C@H](c4ccccc4)C3)C2)C(C)(C)C)cc1` [Compound 459, (difluoro(2-(((S)-1-((S)-4-(3-((9-(((S)-1-((2S,4R)-4-hydroxy-2-(((S)-1-(4-(4-methylthiazol-5-yl)phenyl)ethyl)carbamoyl)pyrrolidin-1-yl)-3,3-dimethyl-1-oxobutan-2-yl)amino)-9-oxononyl)amino)-3-oxopropanoyl)-2-((R)-3-phenylpiperidine-1-carbonyl)piperazin-1-yl)-3,3-dimethyl-1-oxobutan-2-yl)carbamoyl)benzo[b]thiophen-5-yl)methyl)phosphonic acid]: the DC50 under setting [1] is greater than 10 µM and the DC50 under setting [2] is greater than 10 µM.
In the case of `Cc1ncsc1-c1ccc([C@H](C)NC(=O)[C@@H]2C[C@@H](O)CN2C(=O)[C@@H](NC(=O)CCCCCCCCCNC(=O)CC(=O)N2CCN(C(=O)[C@@H](NC(=O)c3cc4cc(C(F)(F)P(=O)(O)O)ccc4s3)C(C)(C)C)[C@H](C(=O)N3CCC[C@H](c4ccccc4)C3)C2)C(C)(C)C)cc1` [Compound 460, (difluoro(2-(((S)-1-((S)-4-(3-((10-(((S)-1-((2S,4R)-4-hydroxy-2-(((S)-1-(4-(4-methylthiazol-5-yl)phenyl)ethyl)carbamoyl)pyrrolidin-1-yl)-3,3-dimethyl-1-oxobutan-2-yl)amino)-10-oxodecyl)amino)-3-oxopropanoyl)-2-((R)-3-phenylpiperidine-1-carbonyl)piperazin-1-yl)-3,3-dimethyl-1-oxobutan-2-yl)carbamoyl)benzo[b]thiophen-5-yl)methyl)phosphonic acid], the half-maximal degradation concentration (DC50) reads like this: under setting [1], greater than 10 µM; under setting [2], greater than 10 µM.
For `Cc1ncsc1-c1ccc([C@H](C)NC(=O)[C@@H]2C[C@@H](O)CN2C(=O)[C@@H](NC(=O)CNC(=O)COc2ccc3c(c2)CN(C(=O)[C@@H](NC(=O)c2cc4cc(C(F)(F)P(=O)(O)O)ccc4s2)C(C)(C)C)[C@H](C(=O)N2CCO[C@H](c4ccccc4)C2)C3)C(C)(C)C)cc1` [Compound 461, (difluoro(2-(((S)-1-((S)-7-(2-((2-(((S)-1-((2S,4R)-4-hydroxy-2-(((S)-1-(4-(4-methylthiazol-5-yl)phenyl)ethyl)carbamoyl)pyrrolidin-1-yl)-3,3-dimethyl-1-oxobutan-2-yl)amino)-2-oxoethyl)amino)-2-oxoethoxy)-3-((R)-2-phenylmorpholine-4-carbonyl)-3,4-dihydroisoquinolin-2(1H)-yl)-3,3-dimethyl-1-oxobutan-2-yl)carbamoyl)benzo[b]thiophen-5-yl)methyl)phosphonic acid], the DC50 is, setting by setting: under setting [1], greater than 10 µM; under setting [2], greater than 10 µM.
On to `Cc1ncsc1-c1ccc([C@H](C)NC(=O)[C@@H]2C[C@@H](O)CN2C(=O)[C@@H](NC(=O)CCNC(=O)COc2ccc3c(c2)CN(C(=O)[C@@H](NC(=O)c2cc4cc(C(F)(F)P(=O)(O)O)ccc4s2)C(C)(C)C)[C@H](C(=O)N2CCO[C@H](c4ccccc4)C2)C3)C(C)(C)C)cc1` [Compound 462, (difluoro(2-(((S)-1-((S)-7-(2-((3-(((S)-1-((2S,4R)-4-hydroxy-2-(((S)-1-(4-(4-methylthiazol-5-yl)phenyl)ethyl)carbamoyl)pyrrolidin-1-yl)-3,3-dimethyl-1-oxobutan-2-yl)amino)-3-oxopropyl)amino)-2-oxoethoxy)-3-((R)-2-phenylmorpholine-4-carbonyl)-3,4-dihydroisoquinolin-2(1H)-yl)-3,3-dimethyl-1-oxobutan-2-yl)carbamoyl)benzo[b]thiophen-5-yl)methyl)phosphonic acid], for which the DC50 reads like this: under setting [1], greater than 10 µM; under setting [2], greater than 10 µM.
Consider `Cc1ncsc1-c1ccc([C@H](C)NC(=O)[C@@H]2C[C@@H](O)CN2C(=O)[C@@H](NC(=O)CCCNC(=O)COc2ccc3c(c2)CN(C(=O)[C@@H](NC(=O)c2cc4cc(C(F)(F)P(=O)(O)O)ccc4s2)C(C)(C)C)[C@H](C(=O)N2CCO[C@H](c4ccccc4)C2)C3)C(C)(C)C)cc1` [Compound 463, (difluoro(2-(((S)-1-((S)-7-(2-((4-(((S)-1-((2S,4R)-4-hydroxy-2-(((S)-1-(4-(4-methylthiazol-5-yl)phenyl)ethyl)carbamoyl)pyrrolidin-1-yl)-3,3-dimethyl-1-oxobutan-2-yl)amino)-4-oxobutyl)amino)-2-oxoethoxy)-3-((R)-2-phenylmorpholine-4-carbonyl)-3,4-dihydroisoquinolin-2(1H)-yl)-3,3-dimethyl-1-oxobutan-2-yl)carbamoyl)benzo[b]thiophen-5-yl)methyl)phosphonic acid], for which the DC50 is, setting by setting: under setting [1], greater than 10 µM; under setting [2], greater than 10 µM.

By DC50 is commonly meant the concentration giving 50% degradation.
